Where “and” joins values, the source holds several entries; their conditions need not be identical. Equal entries are not always repeated.
Columns and labels:
[1] = test system: sea lice, Lepeophtheirus salmonis; assay: Dose confirmation study I: efficacy of emamectin benzoate in feed against induced sea lice infestations on Atlantic salmon; assay type: in vivo; conditions: for Percentage fish mortality: mortality attributed to sea lice damage, includes culled fish
Description: (§1) Three studies were carried out at the Institute of Aquaculture Marine Environmental Research Laboratory in Machrihanish, Scotland. Atlantic salmon, Salmo salar L., post-smolts were obtained from a disease free stock and acclimatised at the test facility.
(§2) Fish were held in replicate groups in plastic fiber tanks, each with a volume of 0.54 m^3. Each tank was supplied with natural sea water at ambient temperature (7-14° C.) and salinity (30-35 ppt), at flow rates of approximately 18 l. min^−1. The tanks were fitted with mesh screens over the water outlet to retain uneaten fish pellets. Fish were observed daily for behavior and adverse drug reactions. Fish mortalities and the occurrence of gross sea lice damage were also recorded.
(§3) Sea lice were collected during harvesting on commercial salmon farms on the west coast of Scotland. Egg strings collected from gravid female lice were incubated in sea water at ambient temperature and within a salinity range of 32-35 ppt. Once the hatched larvae reached the copepodite stage, 38-170 copepodites per fish were introduced into each of four replicate tanks of fish and the water supply to each tank was turned off for approximately three hours to allow attachment of copepodites to the fish. This was repeated 4-5 times at intervals of 3-5 days until chalimus stages I, II, III and IV were present. Chalimus numbers were evaluated at day −1 or day −2 pre-treatment, on sub-samples of fish (N=6-9 fish per tank). At this point, fish were infested with pre-adult and adult lice, by adding 5-10 lice per fish to each tank. Water supplies to each tank were turned off for around one hour until all the lice had attached to the fish. Pre-treatment lice numbers were based on a sub-sample of the total population and presented as the mean number of chalimus per fish. Fish were then randomly re-distributed from the four original tanks to each control or treatment tank, as described in the experimental design for each study, and no further infestations were carried out during or after treatment.
(§4) The basal ration was Fulmar™ (BOCM Pauls Ltd.) 3.5 or 5 mm salmon feed pellets. Emamectin benzoate was dissolved in propylene glycol and mixed with fish oil prior to top coating the feed pellets. Control feeds were prepared in the same way with propylene glycol and fish oil. Treatment was administered at nominal dose rates of 0, 25, 50 and 100 μg kg^−1 fish biomass per day, at a feed rate of 0.5% biomass, for a period of seven consecutive days (days 0-6). Actual daily feed consumption was measured in each tank by collecting the uneaten feed pellets approximately thirty minutes after administration and subtracting the number of pellets from the daily ration fed. The mean dose consumed was calculated for each group as follows: [formula] Mean feed consumption (%)×nominal dose rate (μg·kg^−1)=Mean dose consumed (μg·kg^−1)
(§5) Evaluation of sea lice numbers was carried out at 7, 14 and 21 days from the start of treatment. Fish were anaesthetised in 40 mg·l^−1 ethyl-P-aminobenzoate (benzocaine) and each fish examined under a low power microscope. Lice were identified as chalimus I-IV, pre-adult I or II and adult stages. Pre-adults and adult lice were additionally identified as males or females. The numbers of each developmental stage were recorded. Any lice which detached in the anaesthetic solution were included in the counts and reattached to the fish after transferring them to fresh seawater. The fish were returned to the holding tanks after sampling and the same fish were evaluated at days 7, 14 and 21.
The water temperature was 12-14° C. and salinity was 33-35 ppt. Pre-treatment, mean fish weights were 224 g (±43 g S.D). Emamectin benzoate was administered at nominal daily dose rates of 0, 25, and 50 μg kg^−1 biomass. There were three replicate tanks per treatment with 15 fish per tank. […]

[2] = test system: sea lice, Lepeophtheirus salmonis; assay: Dose confirmation study II: efficacy of emamectin benzoate in feed against induced sea lice infestations on Atlantic salmon; assay type: in vivo
Description: as §1, §2, §3, §4, §5
The water temperature was 9-12° C. and salinity was 30-34 ppt. Pre-treatment, mean fish weights were 418.2 g (±49 g S.D). Emamectin benzoate was administered at se rates of 0 and 50 μg kg^−1 biomass. There were three replicate tanks per treatment with a sample size of 15-16 fish per tank. […]

L. salmonis = assay: All three studies summarised: oral treatment of Atlantic salmon against L. salmonis; assay type: in vivo, Lepeophtheirus salmonis
Description: as §1, §2, §3, §4, §5
Results were summarised as chalimus (chalimus stages I-IV), motile lice pre-adult and adult stages) and total lice (chalimus and motile stages combined). Data on the number of lice per fish were subjected to F-tests for homogeneity of variances and a correlation test to examine the normality of distribution. Fish weights and pre-treatment lice counts were tested by one-way ANOVA. […]

[3] = Daily observation of fish for behavior, adverse drug reactions and mortalities (three studies); assay type: in vivo, Atlantic salmon, Salmo salar L.; conditions: any of the doses tested (25, 50, 100 μg kg^−1 per day, 7 days in feed)
Description: as §2

[4] = nominal dose 25 μg·kg^−1/day (consumed 20.2) in feed Day 0-6, day 21
[5] = nominal dose 25 μg·kg^−1/day in feed Day 0-6, Day 14
[6] = nominal dose 25 μg·kg^−1/day in feed Day 0-6, Day 21
[7] = nominal dose 50 μg·kg^−1/day (consumed 44.3) in feed Day 0-6, Day 7
[8] = nominal dose 50 μg·kg^−1/day (consumed 44.3) in feed Day 0-6, day 21
[9] = nominal dose 50 μg·kg^−1/day in feed Day 0-6, Day 14
[10] = nominal dose 50 μg·kg^−1/day in feed Day 0-6, Day 21
[11] = nominal dose 50 μg·kg^−1/day (consumed 45.7) in feed Day 0-6, Day 7
[12] = nominal dose 50 μg·kg^−1/day (consumed 45.7) in feed Day 0-6, day 21
[13] = dose rate 50 μg kg^−1, three studies

Substance: emamectin benzoate
- % Reduction relative to controls (Total lice) ([1]; nominal dose 25 μg·kg^−1/day (consumed 20.2) in feed Day 0-6, Day 21): 82% and 81.9%
- Percentage of fish with no lice present (chalimus or motiles) [1, 4]: 3%
- Percentage of fish with no motile lice present [1, 4]: 6.1%
- % Reduction relative to controls (Total lice) [1, 5]: 76.0%
- Mean Total lice (± S.D) [1, 5]: 9.8 ± 4.4
- Mean chalimus (± S.D) [1, 5]: 0.30
- Mean motiles (± S.D) [1, 5]: 9.5 ± 4.4
- Mean Total lice (± S.D) [1, 6]: 4.9 and 4.9 ± 3.1
- Mean chalimus (± S.D) [1, 6]: 0
- Mean motiles (± S.D) [1, 6]: 4.9 ± 3.1
- Percentage fish mortality ([1]; nominal dose 25 μg·kg^−1/day): 31%
- % Reduction relative to controls (Total lice) [1, 7]: 53.8%
- Mean Total lice (± S.D) [1, 7]: 28.1 ± 13.1
- Mean chalimus (± S.D) [1, 7]: 3.2 ± 2.2
- Mean motiles (± S.D) [1, 7]: 24.9 ± 13.2
- % Reduction relative to controls (Total lice) ([1]; nominal dose 50 μg·kg^−1/day (consumed 44.3) in feed Day 0-6, Day 21): 94% and 94.3%
- Percentage of fish with no lice present (chalimus or motiles) [1, 8]: 28.6%
- Percentage of fish with no motile lice present [1, 8]: 28.6%
- % Reduction relative to controls (Total lice) [1, 9]: 88.0%
- Mean Total lice (± S.D) [1, 9]: 4.9 ± 2.7
- Mean chalimus (± S.D) [1, 9]: 0.6
- Mean motiles (± S.D) [1, 9]: 4.3 ± 2.6
- Mean Total lice (± S.D) [1, 10]: 1.6 and 1.6 ± 1.3
- Mean chalimus (± S.D) [1, 10]: 0
- Mean motiles (± S.D) [1, 10]: 1.6 ± 1.4
- Percentage fish mortality ([1]; nominal dose 50 μg·kg^−1/day): 27%
- reduction of total mean numbers of lice compared to the control groups ([1]; treated groups (25 and 50 μg kg^−1), day 7): 44-54%
- total lice numbers lower than in the control groups ([1]; treated groups (25 and 50 μg kg^−1), day 21): 82-94%
- cranial lesions resulting from sea lice activity ([2]; 50 μg kg^−1 groups, by day 21 (21% of control fish had lesions)): No cranial lesions
- % Reduction relative to controls (Total lice) [2, 11]: 46% and 45.9%
- Mean Total lice (± S.D) [2, 11]: 40.5 ± 12.2
- Mean chalimus (± S.D) [2, 11]: 30.0 ± 11.8
- Mean motiles (± S.D) [2, 11]: 10.5 ± 8.1
- % Reduction relative to controls (Total lice) ([2]; nominal dose 50 μg·kg^−1/day (consumed 45.7) in feed Day 0-6, Day 21): 95% and 94.6%
- Percentage of fish with no lice present (chalimus or motiles) [2, 12]: 27%
- Percentage of fish with no motile lice present [2, 12]: 66% and 66.3%
- % Reduction relative to controls (Total lice) [2, 9]: 70.7%
- Mean Total lice (± S.D) [2, 9]: 14.7 ± 5.9
- Mean chalimus (± S.D) [2, 9]: 12.7 ± 5.7
- Mean motiles (± S.D) [2, 9]: 2.0 ± 3.2
- Mean Total lice (± S.D) [2, 10]: 2.1 and 2.1 ± 2.1
- Mean chalimus (± S.D) [2, 10]: 1.5 ± 1.7
- Mean motiles (± S.D) [2, 10]: 0.6 and 0.6 ± 1.1
- Percentage fish mortality ([2]; nominal dose 50 μg·kg^−1/day, mortality figures include culled fish): 0%
- reduction of motile lice numbers (L. salmonis; 50 μg kg^−1, day 7 from the start of medication, three studies): 58-80%
- Percentage of fish with no motile lice present (L. salmonis; [13]): ≤ 87%
- percentage of fish with no lice present of any stage (L. salmonis; [13]): 20-30%
- reductions in sea lice numbers consistently achieved (L. salmonis; [13]): 94-95%
- efficacy against the immature chalimus stages (L. salmonis; oral treatment of Atlantic salmon): highly effective
- efficacy against the motile and chalimus stages of L. salmonis (L. salmonis; oral treatment of Atlantic salmon, all three studies): very good efficacy
- adverse effects or fish mortality attributed to treatment [3]: No adverse effects or fish mortality

Source: US6486128B1, “Method of using emamectin to treat fish parasites” (Schering-Plough Veterinary Corporation, priority 1999, dated 2002)
